Test results reported in PubChem BioAssay (NCI).
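The compound was tested at five concentrations on cells cultured in 96-well plates, with a 48-hour exposure period. TGI denotes the concentration required for complete inhibition of growth.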

Legend:
Experiment in all cases: NCI tumour cell line growth inhibition, 48 h
SW-620 colon = system: SW-620 colon
HCT-15 colon = system: HCT-15 colon
OVCAR-4 ovarian = system: OVCAR-4 ovarian
UACC-257 melanoma = system: UACC-257 melanoma
EKVX NSCLC = system: EKVX NSCLC
MALME-3M melanoma = system: MALME-3M melanoma
NCI-H226 lung = system: NCI-H226 lung
UACC-62 melanoma = system: UACC-62 melanoma
SN12C renal = system: SN12C renal
SK-MEL-5 melanoma = system: SK-MEL-5 melanoma
RXF 393 renal = system: RXF 393 renal
ACHN renal = system: ACHN renal
SK-OV-3 ovarian = system: SK-OV-3 ovarian
OVCAR-3 ovarian = system: OVCAR-3 ovarian
HOP-92 NSCLC = system: HOP-92 NSCLC
K-562 leukemia = system: K-562 leukemia
HT29 colon = system: HT29 colon
DU-145 prostate = system: DU-145 prostate
SK-MEL-2 melanoma = system: SK-MEL-2 melanoma
MDA-N = system: MDA-N
T-47D breast = system: T-47D breast
BT-549 breast = system: BT-549 breast
HCT-116 colon = system: HCT-116 colon
KM20L2 colon = system: KM20L2 colon
KM12 colon = system: KM12 colon
NCI-H460 lung = system: NCI-H460 lung
CCRF-CEM leukemia = system: CCRF-CEM leukemia
SF-539 CNS = system: SF-539 CNS
LXFL 529 NSCLC = system: LXFL 529 NSCLC
SF-295 CNS = system: SF-295 CNS
OVCAR-5 ovarian = system: OVCAR-5 ovarian
NCI-H522 lung = system: NCI-H522 lung
NCI-H23 lung = system: NCI-H23 lung
IGROV1 ovarian = system: IGROV1 ovarian
RPMI-8226 leukemia = system: RPMI-8226 leukemia
HL-60(TB) leukemia = system: HL-60(TB) leukemia
COLO 205 colon = system: COLO 205 colon
SNB-78 CNS = system: SNB-78 CNS
786-0 renal = system: 786-0 renal
M14 melanoma = system: M14 melanoma
DMS 114 small cell lung = system: DMS 114 small cell lung
A498 renal = system: A498 renal
NCI/ADR-RES ovarian = system: NCI/ADR-RES ovarian
UO-31 renal = system: UO-31 renal
DMS 273 small cell lung = system: DMS 273 small cell lung
SF-268 CNS = system: SF-268 CNS
PC-3 prostate = system: PC-3 prostate
MOLT-4 leukemia = system: MOLT-4 leukemia
U251 CNS = system: U251 CNS
SK-MEL-28 melanoma = system: SK-MEL-28 melanoma
CAKI-1 renal = system: CAKI-1 renal
LOX IMVI melanoma = system: LOX IMVI melanoma
SNB-75 CNS = system: SNB-75 CNS
A549 NSCLC = system: A549 NSCLC
M19-MEL melanoma = system: M19-MEL melanoma
TK-10 renal = system: TK-10 renal
OVCAR-8 ovarian = system: OVCAR-8 ovarian
MCF7 breast = system: MCF7 breast
HCC-2998 colon = system: HCC-2998 colon
HOP-62 NSCLC = system: HOP-62 NSCLC
SR leukemia = system: SR leukemia
MDA-MB-435 = system: MDA-MB-435
MDA-MB-231 breast = system: MDA-MB-231 breast
SNB-19 CNS = system: SNB-19 CNS
HS 578T breast = system: HS 578T breast

Work on `CC(C)Cn1cnc2c(Sc3c([N+](=O)[O-])ncn3C)nc(N)nc21` yielded a TGI (SW-620 colon) greater than 100 µM, a TGI (HCT-15 colon) greater than 100 µM and a TGI (OVCAR-4 ovarian) greater than 100 µM. For the same compound, the TGI (UACC-257 melanoma) was greater than 100 µM, the TGI (EKVX NSCLC) was greater than 100 µM and the TGI (MALME-3M melanoma) was greater than 59.8 µM. The TGI (NCI-H226 lung) was greater than 100 µM, the TGI (UACC-62 melanoma) was greater than 100 µM and the TGI (SN12C renal) was greater than 100 µM. It also gave a TGI (SK-MEL-5 melanoma) greater than 100 µM, a TGI (RXF 393 renal) greater than 100 µM and a TGI (ACHN renal) greater than 100 µM. It also gave a TGI (SK-OV-3 ovarian) greater than 100 µM, a TGI (OVCAR-3 ovarian) greater than 57.4 µM and a TGI (HOP-92 NSCLC) of 36.9 µM. The TGI (K-562 leukemia) was greater than 100 µM, the TGI (HT29 colon) was greater than 100 µM and the TGI (DU-145 prostate) was greater than 100 µM. The TGI (SK-MEL-2 melanoma) was 81.9 µM, the TGI (MDA-N) was greater than 100 µM and the TGI (T-47D breast) was greater than 100 µM. It also gave a TGI (BT-549 breast) greater than 100 µM, a TGI (HCT-116 colon) greater than 100 µM and a TGI (KM20L2 colon) greater than 100 µM. The TGI (KM12 colon) was greater than 100 µM, the TGI (NCI-H460 lung) was greater than 100 µM and the TGI (CCRF-CEM leukemia) was greater than 100 µM. It also gave a TGI (SF-539 CNS) greater than 100 µM, a TGI (LXFL 529 NSCLC) greater than 100 µM and a TGI (SF-295 CNS) greater than 100 µM. It also gave a TGI (OVCAR-5 ovarian) greater than 100 µM, a TGI (NCI-H522 lung) of 89.1 µM and a TGI (NCI-H23 lung) greater than 100 µM. It also gave a TGI (IGROV1 ovarian) greater than 100 µM, a TGI (RPMI-8226 leukemia) greater than 100 µM and a TGI (HL-60(TB) leukemia) greater than 100 µM. For the same compound, the TGI (COLO 205 colon) was greater than 62.9 µM, the TGI (SNB-78 CNS) was greater than 100 µM and the TGI (786-0 renal) was greater than 100 µM. It also gave a TGI (M14 melanoma) greater than 100 µM, a TGI (DMS 114 small cell lung) greater than 100 µM and a TGI (A498 renal) greater than 100 µM. For the same compound, the TGI (NCI/ADR-RES ovarian) was greater than 100 µM, the TGI (UO-31 renal) was greater than 75 µM and the TGI (DMS 273 small cell lung) was greater than 100 µM. The TGI (SF-268 CNS) was greater than 100 µM, the TGI (PC-3 prostate) was greater than 100 µM and the TGI (MOLT-4 leukemia) was greater than 100 µM. For the same compound, the TGI (U251 CNS) was greater than 100 µM, the TGI (SK-MEL-28 melanoma) was greater than 100 µM and the TGI (CAKI-1 renal) was greater than 100 µM. It also gave a TGI (LOX IMVI melanoma) greater than 100 µM, a TGI (SNB-75 CNS) greater than 100 µM and a TGI (A549 NSCLC) greater than 100 µM. It also gave a TGI (M19-MEL melanoma) greater than 100 µM, a TGI (TK-10 renal) greater than 100 µM and a TGI (OVCAR-8 ovarian) greater than 100 µM. The TGI (MCF7 breast) was greater than 100 µM, the TGI (HCC-2998 colon) was greater than 100 µM and the TGI (HOP-62 NSCLC) was greater than 100 µM. The TGI (SR leukemia) was greater than 100 µM, the TGI (MDA-MB-435) was greater than 100 µM and the TGI (MDA-MB-231 breast) was greater than 100 µM. It also gave a TGI (SNB-19 CNS) greater than 100 µM.
`COc1ccccc1C=NC12CC3CC(CC(C3)C1)C2` gave a TGI (SW-620 colon) greater than 100 µM, a TGI (HCT-15 colon) greater than 100 µM and a TGI (OVCAR-4 ovarian) greater than 100 µM. The TGI (UACC-257 melanoma) was greater than 100 µM, the TGI (EKVX NSCLC) was greater than 100 µM and the TGI (MALME-3M melanoma) was greater than 100 µM. The TGI (NCI-H226 lung) was greater than 10 µM, the TGI (UACC-62 melanoma) was greater than 100 µM and the TGI (SN12C renal) was greater than 100 µM. The TGI (SK-MEL-5 melanoma) was greater than 100 µM, the TGI (RXF 393 renal) was greater than 100 µM and the TGI (ACHN renal) was greater than 100 µM. It also gave a TGI (SK-OV-3 ovarian) greater than 100 µM, a TGI (OVCAR-3 ovarian) greater than 100 µM and a TGI (HOP-92 NSCLC) greater than 100 µM. For the same compound, the TGI (K-562 leukemia) was greater than 100 µM, the TGI (HT29 colon) was greater than 100 µM and the TGI (SK-MEL-2 melanoma) was greater than 100 µM. It also gave a TGI (HCT-116 colon) greater than 10 µM, a TGI (KM20L2 colon) greater than 100 µM and a TGI (KM12 colon) greater than 100 µM. The TGI (NCI-H460 lung) was greater than 100 µM, the TGI (CCRF-CEM leukemia) was greater than 100 µM and the TGI (SF-539 CNS) was greater than 100 µM. The TGI (SF-295 CNS) was greater than 100 µM, the TGI (OVCAR-5 ovarian) was greater than 100 µM and the TGI (NCI-H522 lung) was greater than 100 µM. For the same compound, the TGI (NCI-H23 lung) was greater than 100 µM, the TGI (RPMI-8226 leukemia) was greater than 100 µM and the TGI (HL-60(TB) leukemia) was greater than 100 µM. The TGI (COLO 205 colon) was greater than 100 µM, the TGI (786-0 renal) was greater than 100 µM and the TGI (M14 melanoma) was greater than 100 µM. The TGI (DMS 114 small cell lung) was greater than 10 µM, the TGI (A498 renal) was greater than 100 µM and the TGI (UO-31 renal) was greater than 100 µM. The TGI (DMS 273 small cell lung) was greater than 100 µM, the TGI (SF-268 CNS) was greater than 100 µM and the TGI (MOLT-4 leukemia) was greater than 100 µM. The TGI (U251 CNS) was greater than 100 µM, the TGI (SK-MEL-28 melanoma) was greater than 100 µM and the TGI (CAKI-1 renal) was greater than 100 µM. It also gave a TGI (LOX IMVI melanoma) greater than 100 µM, a TGI (SNB-75 CNS) greater than 100 µM and a TGI (A549 NSCLC) greater than 100 µM. The TGI (M19-MEL melanoma) was greater than 100 µM, the TGI (TK-10 renal) was greater than 100 µM and the TGI (OVCAR-8 ovarian) was greater than 100 µM. The TGI (HCC-2998 colon) was greater than 100 µM, the TGI (HOP-62 NSCLC) was greater than 100 µM and the TGI (SR leukemia) was greater than 100 µM. It also gave a TGI (SNB-19 CNS) greater than 100 µM.
In the case of `COc1ccc2nc3n[nH]c(N)c3nc2c1`, the TGI (SW-620 colon) was 45.9 µM, the TGI (HCT-15 colon) was greater than 93.7 µM and the TGI (OVCAR-4 ovarian) was greater than 87.3 µM. The TGI (UACC-257 melanoma) was 90.4 µM, the TGI (EKVX NSCLC) was 45.6 µM and the TGI (MALME-3M melanoma) was 69.6 µM. The TGI (NCI-H226 lung) was 24.8 µM, the TGI (UACC-62 melanoma) was 19.8 µM and the TGI (SN12C renal) was greater than 69.1 µM. For the same compound, the TGI (SK-MEL-5 melanoma) was greater than 29.1 µM, the TGI (RXF 393 renal) was 5.91 µM and the TGI (ACHN renal) was greater than 23.7 µM. It also gave a TGI (SK-OV-3 ovarian) greater than 64.9 µM, a TGI (OVCAR-3 ovarian) of 38.3 µM and a TGI (HOP-92 NSCLC) of 48.6 µM. For the same compound, the TGI (HS 578T breast) was 23.8 µM, the TGI (K-562 leukemia) was greater than 100 µM and the TGI (HT29 colon) was 36.9 µM. The TGI (DU-145 prostate) was greater than 49.2 µM, the TGI (SK-MEL-2 melanoma) was 17.5 µM and the TGI (MDA-N) was 44.4 µM. It also gave a TGI (T-47D breast) of 46.5 µM, a TGI (BT-549 breast) of 62.9 µM and a TGI (HCT-116 colon) greater than 32.8 µM. It also gave a TGI (KM12 colon) greater than 93 µM, a TGI (NCI-H460 lung) greater than 84.2 µM and a TGI (CCRF-CEM leukemia) greater than 25.7 µM. The TGI (SF-539 CNS) was 12 µM, the TGI (SF-295 CNS) was greater than 76.7 µM and the TGI (OVCAR-5 ovarian) was greater than 87.2 µM. The TGI (NCI-H522 lung) was 27.3 µM, the TGI (NCI-H23 lung) was 15.5 µM and the TGI (IGROV1 ovarian) was 17.1 µM. The TGI (RPMI-8226 leukemia) was 19 µM, the TGI (HL-60(TB) leukemia) was 4.48 µM and the TGI (COLO 205 colon) was 18.9 µM. The TGI (786-0 renal) was greater than 65.9 µM, the TGI (M14 melanoma) was 27.6 µM and the TGI (A498 renal) was greater than 62.3 µM. The TGI (NCI/ADR-RES ovarian) was 33.8 µM, the TGI (UO-31 renal) was 55 µM and the TGI (SF-268 CNS) was 23.8 µM. For the same compound, the TGI (PC-3 prostate) was 36.9 µM, the TGI (MOLT-4 leukemia) was greater than 100 µM and the TGI (U251 CNS) was greater than 56.3 µM. The TGI (SK-MEL-28 melanoma) was 42.2 µM, the TGI (CAKI-1 renal) was greater than 90.6 µM and the TGI (LOX IMVI melanoma) was 20.4 µM. It also gave a TGI (SNB-75 CNS) of 21.7 µM, a TGI (A549 NSCLC) greater than 26.5 µM and a TGI (TK-10 renal) greater than 75.7 µM. It also gave a TGI (OVCAR-8 ovarian) of 32.5 µM, a TGI (MCF7 breast) greater than 26.7 µM and a TGI (HCC-2998 colon) greater than 74 µM. It also gave a TGI (HOP-62 NSCLC) greater than 76.5 µM, a TGI (SR leukemia) greater than 78 µM and a TGI (MDA-MB-435) of 72.3 µM. For the same compound, the TGI (MDA-MB-231 breast) was 64.4 µM and the TGI (SNB-19 CNS) was greater than 100 µM.
